Values of other authors, collected in patent US20100249031A1, “Nutritional Composition Comprising Curcuminoids and Methods of Manufacture” (priority 2009, published 2010).

Assays:
[1] = percentage of ingested curcuminoid metabolized by the body
Microtubule Assembly = settings: @ 40 μM

Metabolic Recovery [1] [%]	Compound	Inhibition of Microtubule Assembly (Microtubule Assembly) [% @]
~75	O=C(/C=C/c1ccc(O)cc1)CC(=O)/C=C/c1ccc(O)cc1 [BDMC, bisdemethoxycurcumin]	–
~50	COc1cc(/C=C/C(O)=C/C(=O)/C=C/c2ccc(O)cc2)ccc1O [DMC, demethoxycurcumin]	–
–	COc1cc(/C=C/C(=O)CC(=O)/C=C/c2ccc(O)c(OC)c2)ccc1O [Curcumin, curcumin]	50
